The results in this text go back to US6165982A, “Use of sericin as antioxidants and tyrosinase inhibitors” (Seiren Co., Ltd., priority 1996, dated 2000).

The test concerns rat brain homogenate. Briefly: Inhibitory test of lipid peroxide in rat brain homogenate (TBARS, TBA method). It is filed as biochemical. Conditions: for Inhibitory rate on an increase in lipid peroxide: 37° C., 2 hours, TBARS. Here is the method:
To 1 g of the rat brain stored under refrigeration was added 9 ml of 0.075M phosphate buffer (pH 7.5) and the mixture was homogenated under ice-cooling (hereinafter referred to as homogenate). To 0.5 ml of the homogenate obtained above was added 3.5 ml each of 0.075M phosphate buffers containing Sericin L and Sericin H (pH 7.5), respectively. Incubation was continued at 37° C. for 2 hours. At the end of this time, the respective final concentrations of sericin were made to 0.02~0.5%. Immediately before the isolation and after the incubation for 2 hours, 0.5 ml each of the samples was recovered and then TBARS (thiobarbituric acid reactive substance), an indicator of lipid peroxide level, was determined according to the TBA (thiobarbituric acid) method. Antioxidizing ability of sericin was calculated from the TBARS amount obtained when no sericin was added and the TBARS amount obtained when sericin was added according to the following equation 1 and expressed in terms of an inhibitory rate on an increase in lipid peroxide by incubation. In all cases of this Test Example and the following Test Examples 2~5, tests were repeated three times and the results were shown with an average value of the numerical values thus obtained. Inhibitory rate (%)=(1-A/B)×100 Equation 1 A: Increased TBARS amount obtained when a lipid peroxide inhibitory agent (an antioxidant) was added B: Increased TBARS amount obtained when no lipid peroxide inhibitory agent (an antioxidant) was added To 0.5 ml of a sample were added 2.5 ml of a 8% trichloroacetic acid solution and 2.0 ml of a 0.67% thiobarbituric acid solution and the resulting mixture was thoroughly mixed and then heated in a boiling water bath for 15 minutes. Thereafter, the mixture was centrifuged at 2000× g for 10 minutes and the supernatant was measured for absorbance at 535 nm to determine a TBARS amount. 1,1,3,3-Tetraethoxypropane was used as a standard. To 0.5 ml of the homogenate obtained above was added 3.5 ml each of 0.075M phosphate buffers (pH 7.5) containing Sericin L, ascorbic acid (vitamin C) and bovine serum albumin, respectively. Incubation was continued at 37° C. for 2 hours. The final concentrations of Sericin L, ascorbic acid and albumin were made to 0.01%~1.0%. After incubation, a TBARS amount was determined according to the TBA method, similarly to Test Example 1 and inhibitory rates on an increase in lipid peroxide were determined, respectively.

Regarding `O=C1O[C@H]([C@@H](O)CO)C(O)=C1O` [Ascorbic acid, ascorbic acid], the “Inhibitory rate on an increase in lipid peroxide” value reads like this: (final concentration 0.01%) -39%; (final concentration 0.05%) 39%; (final concentration 0.1%) 87%; (final concentration 0.5%) 97%; (final concentration 1.0%) 96%. Further, the “Effect on oxidation at low concentration (in words)” value (low concentration range of 0.01%) is “oxidation may be accelerated”.
